Test: recombinant barcode read abundance after kanamycin selection (control-corrected) (log10(CPM+1)); higher = more efficient recombination; sequences stand for … in AGTGCAGAGAAAATCGGCCAGTTTTCTCTGCCTGCAGTCCGCATGCCGT…AGATTTATGCAGCGGACTGCCTTTCTCCCAAAGTGATAAACCGGACAGTATCATGGACCGGTTTTCCCGGTAATCCGTATTTGCAAGGTTGGTTTCACT; site = the 11-nt target
Method: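 Pooled E. coli target-specificity screen for the IS621 bridge recombinase. Each library plasmid pairs an 11-nt target (CT core) with a bridge RNA whose target-binding loop (9-nt LTG + 4-nt RTG) is reprogrammed; the rest of the 177-nt WT IS621 bridge RNA scaffold is fixed. The plasmid is co-electroporated with a WT donor plasmid; recombinase is induced with 0.1 mM IPTG and recombinants are selected on kanamycin. Recombinant barcodes are sequenced, converted to CPM, averaged over two biological replicates and corrected by the unselected control CPM. Molecule = full bridge RNA written as DNA: LTG = specificity nt 1-9, RTG = reverse complement of specificity nt 8-11, in the WT scaffold.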
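Note: IS621 recombinase and bridge RNA in Escherichia coli cells.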

Row | Sequence | recombinant barcode read abundance (log10)
1 | AACAAGACTTGGGTTCTAACCTGTTGCCT (site AACAAGACTAG) | 1.29
2 | AACAAGACTTGGGTTCTAACCTGTTGCCT (site GTACGACCTGT) | 0.274
3 | AACAATACTTGGGTTCTAACCTGTTGCCT (site AACAATACTAG) | 0.438
4 | AACAATACTTGGGTTCTAACCTGTTGCCT (site CTGTGAGCTCT) | 0.0738
5 | AACACGACTTGGGTTCTAACCTGTTGCCT (site AACACGACTAG) | 0.711
6 | AACACGACTTGGGTTCTAACCTGTTGCCT (site GACAGGACTAG) | 0.165
7 | AACACTGCTTGGGTTCTAACCTGTTGCCT (site AACAATGCTAG) | 0.0705
8 | AACACTGCTTGGGTTCTAACCTGTTGCCT (site AACACTGCTAG) | 1.09
9 | AACACTGCTTGGGTTCTAACCTGTTGCCT (site AACAGTGCTAG) | 0
10 | AACACTGCTTGGGTTCTAACCTGTTGCCT (site AACATTGCTAG) | 0.0625
11 | AACAGTACTTGGGTTCTAACCTGTTGCCT (site AACAGTACTAG) | 0.845
12 | AACAGTACTTGGGTTCTAACCTGTTGCCT (site CACAGTACTAG) | 0.406
13 | AACAGTACTTGGGTTCTAACCTGTTGCCT (site GACAGTACTAG) | 0.129
14 | AACAGTACTTGGGTTCTAACCTGTTGCCT (site TACAGTACTAG) | 0.17
15 | AACATAACTTGGGTTCTAACCTGTTGCGT (site AACATAACTAC) | 1.34
16 | AACATAACTTGGGTTCTAACCTGTTGCGT (site TGTTGTCCTCA) | 0.0331
17 | AACCCTACTTGGGTTCTAACCTGTTGCCT (site AACCCTACTAG) | 0.929
18 | AACCCTACTTGGGTTCTAACCTGTTGCCT (site CACCCTACTAG) | 0.328
19 | AACCCTACTTGGGTTCTAACCTGTTGCCT (site GACCCTACTAG) | 0.0455
20 | AACCCTACTTGGGTTCTAACCTGTTGCCT (site TACCCTACTAG) | 0.193
21 | AACCGCCCTTGGGTTCTAACCTGTTGCCT (site AACCGCCCTAC) | 0.899

Row | Sequence | recombinant barcode read abundance (log10)
22 | AACCGCCCTTGGGTTCTAACCTGTTGCCT (site AACCGCCCTAG) | 0.478
23 | AACGACGCTTGGGTTCTAACCTGTTGCCT (site AACGACGCTAG) | 1.02
24 | AACGACGCTTGGGTTCTAACCTGTTGCCT (site ACCGAGGCTAG) | 0.0126
25 | AACGCCTCTTGGGTTCTAACCTGTTGCCT (site AACGCCTCTAG) | 0.389
26 | AACGCCTCTTGGGTTCTAACCTGTTGCCT (site CACGCCTCTAG) | 0.125
27 | AACGCCTCTTGGGTTCTAACCTGTTGCCT (site GACGCCTCTAG) | 0.178
28 | AACGCCTCTTGGGTTCTAACCTGTTGCCT (site TACGCCTCTAG) | 0.274
29 | AACGTGTCTTGGGTTCTAACCTGTTGCCT (site AAAGTGTCTAG) | 0.375
30 | AACGTGTCTTGGGTTCTAACCTGTTGCCT (site AACGTGTCTAG) | 2.57
31 | AACGTGTCTTGGGTTCTAACCTGTTGCCT (site AAGGTGTCTAG) | 0.103
32 | AACGTGTCTTGGGTTCTAACCTGTTGCCT (site AATGTGTCTAG) | 0.543
33 | AACTGAACTTGGGTTCTAACCTGTTGCCT (site AACTAAACTAG) | 0.18
34 | AACTGAACTTGGGTTCTAACCTGTTGCCT (site AACTCAACTAG) | 0.056
35 | AACTGAACTTGGGTTCTAACCTGTTGCCT (site AACTGAACTAG) | 0.459
36 | AACTGAACTTGGGTTCTAACCTGTTGCCT (site AACTTAACTAG) | 0.0689
37 | AACTTCCCTTGGGTTCTAACCTGTTGCCT (site AACTTCACTAG) | 0.0364
38 | AACTTCCCTTGGGTTCTAACCTGTTGCCT (site AACTTCCCTAG) | 0.315
39 | AACTTCCCTTGGGTTCTAACCTGTTGCCT (site AACTTCGCTAG) | 0.00996
40 | AACTTCCCTTGGGTTCTAACCTGTTGCCT (site AACTTCTCTAG) | 0.0342
41 | AACTTCTCTTGGGTTCTAACCTGTTGCCT (site AACTTCACTAG) | 0.184
42 | AACTTCTCTTGGGTTCTAACCTGTTGCCT (site AACTTCCCTAG) | 0.242

Row | Sequence | recombinant barcode read abundance (log10)
43 | AACTTCTCTTGGGTTCTAACCTGTTGCCT (site AACTTCGCTAG) | 0.0209
44 | AACTTCTCTTGGGTTCTAACCTGTTGCCT (site AACTTCTCTAG) | 0.917
45 | AAGAACACTTGGGTTCTAACCTGTTGCCT (site AAGAACACTAG) | 2.06
46 | AAGAACACTTGGGTTCTAACCTGTTGCCT (site CAGAACACTAG) | 0.46
47 | AAGAACACTTGGGTTCTAACCTGTTGCCT (site GAGAACACTAG) | 0.233
48 | AAGAACACTTGGGTTCTAACCTGTTGCCT (site TAGAACACTAG) | 1.19
49 | AAGAACTCTTGGGTTCTAACCTGTTGCCA (site AAGAACTCTTG) | 1.11
50 | AAGAACTCTTGGGTTCTAACCTGTTGCCA (site GGCGTGCCTAC) | 0.199
51 | AAGACAGCTTGGGTTCTAACCTGTTGCCT (site AAGAAAGCTAG) | 0.403
52 | AAGACAGCTTGGGTTCTAACCTGTTGCCT (site AAGACAGCTAG) | 1.19
53 | AAGACAGCTTGGGTTCTAACCTGTTGCCT (site AAGAGAGCTAG) | 0.0524
54 | AAGACAGCTTGGGTTCTAACCTGTTGCCT (site AAGATAGCTAG) | 0.0189
55 | AAGACCTCTTGGGTTCTAACCTGTTGCTT (site AAGACCTCTAA) | 1.76
56 | AAGACCTCTTGGGTTCTAACCTGTTGCTT (site AAGCCCTCTAA) | 0.139
57 | AAGACCTCTTGGGTTCTAACCTGTTGCTT (site AAGGCCTCTAA) | 0.255
58 | AAGACCTCTTGGGTTCTAACCTGTTGCTT (site AAGTCCTCTAA) | 0.134
59 | AAGACTCCTTGGGTTCTAACCTGTTGCTT (site AACACTCCTAA) | 0.287
60 | AAGACTCCTTGGGTTCTAACCTGTTGCTT (site AAGACTCCTAA) | 1.05
61 | AAGAGAGCTTGGGTTCTAACCTGTTGCCT (site AAGAAAGCTAG) | 0.0985
62 | AAGAGAGCTTGGGTTCTAACCTGTTGCCT (site AAGACAGCTAG) | 0.154
63 | AAGAGAGCTTGGGTTCTAACCTGTTGCCT (site AAGAGAGCTAG) | 1.91

Row | Sequence | recombinant barcode read abundance (log10)
64 | AAGAGAGCTTGGGTTCTAACCTGTTGCCT (site AAGATAGCTAG) | 0.0307
65 | AAGATCACTTGGGTTCTAACCTGTTGCGG (site AAGATCACTCC) | 2.36
66 | AAGATCACTTGGGTTCTAACCTGTTGCGG (site TTACATGCTAG) | 0.026
67 | AAGCAAACTTGGGTTCTAACCTGTTGCCT (site AAGCAAACTAG) | 0.66
68 | AAGCAAACTTGGGTTCTAACCTGTTGCCT (site AAGCCAACTAG) | 0.0799
69 | AAGCAAACTTGGGTTCTAACCTGTTGCCT (site AAGCGAACTAG) | 0.22
70 | AAGCAAACTTGGGTTCTAACCTGTTGCCT (site AAGCTAACTAG) | 0.218
71 | AAGCAATCTTGGGTTCTAACCTGTTGCCT (site AAGCAATCTAG) | 0.927
72 | AAGCAATCTTGGGTTCTAACCTGTTGCCT (site AAGCACTCTAG) | 0.159
73 | AAGCAATCTTGGGTTCTAACCTGTTGCCT (site AAGCAGTCTAG) | 0.0406
74 | AAGCAATCTTGGGTTCTAACCTGTTGCCT (site AAGCATTCTAG) | 0.126
75 | AAGCCACCTTGGGTTCTAACCTGTTGCCT (site AAGCCACCTAG) | 2.3
76 | AAGCCACCTTGGGTTCTAACCTGTTGCCT (site CAGCCACCTAG) | 0.126
77 | AAGCCACCTTGGGTTCTAACCTGTTGCCT (site GAGCCACCTAG) | 0.392
78 | AAGCCACCTTGGGTTCTAACCTGTTGCCT (site TAGCCACCTAG) | 1.31
79 | AAGCGTCCTTGGGTTCTAACCTGTTGCCT (site AAGCGTACTAG) | 0.384
80 | AAGCGTCCTTGGGTTCTAACCTGTTGCCT (site AAGCGTCCTAG) | 1.24
81 | AAGCGTCCTTGGGTTCTAACCTGTTGCCT (site AAGCGTGCTAG) | 0.583
82 | AAGCGTCCTTGGGTTCTAACCTGTTGCCT (site AAGCGTTCTAG) | 0.06

Source: the supplement of paper PMC11208160
